The text below walks through data of US20200261421A1, “HETEROCYCLIC COMPOUNDS AS HIV PROTEASE INHIBITORS” (Merck Sharp & Dohme Corp., priority 2016, published 2020).

This test deals with T1, wild-type HIV-1 protease (Human immunodeficiency virus type 1 group M subtype B, UniProt P04585).
T1 construct: Escherichia coli expressed wild-type HIV-1 protease protein; made in house; host or cells: Escherichia coli
The test is described as follows: Assay for Inhibition of Microbial Expressed HIV Protease. It counts as biochemical. The conditions noted are these: Escherichia coli expressed wild-type HIV-1 protease, peptide substrate cleavage; mean of at least two independent experiments. On the procedure:
Inhibition of Escherichia coli expressed wild-type HIV-1 protease protein was carried out with a peptide substrate [Val-Ser-Gln-Asn-Wnaphtyl)Ala-Pro-Ile-Val]. The inhibitor compound was preincubated with HIV-1 protease enzyme in assay buffer (50 mM sodium acetate, pH 5.5, 100 mM NaCl, and 0.1% BSA) for 30 minutes at room temperature. Peptide substrate was added to 400 μM in a total volume of 20 μL containing 20 pM HIV-1 protease (final) after which the reaction was incubated for 1 hour at 30° C. The reaction was quenched by the addition of formic acid and HIV protease inhibitor indinavir to 0.012% and 150 nM final concentrations, respectively. Product formation was determined after separation of product and substrate on a ZORBAX Eclipse XDB-C18 column (Aligent Technologies, Santa Clara, Calif., USA) connected to an API 4000™ mass spectrometer (AB Sciex, Pte. Ltd., Concord Ontario, Canada) with multiple reaction monitoring (transitions were 644.5/428.9 and 615.4/422.2 (M1/M3) for product and indinavir respectively). The extent of inhibition of the reaction was determined from the peak area of the products. Analysis of the products, independently synthesized, provided quantitation standards and confirmation of the product composition. […] Ic50's refer to the 50% inhibition of the cleavage of a peptide substrate by hiv protease.
Data shown in the table reflects the mean of at least two independent experiments.

Molecules are shown by their SMILES.

Compound `N=C1NC(c2ccccc2)(c2ccccc2)C(=O)N1Cc1ccc(C(F)(F)F)c(C(=O)NCc2ccc(OC(F)F)cc2)c1` [Example 12, N-[4-(difluoromethoxy)benzyl]-5-[(2-imino-5-oxo-4,4-diphenylimidazolidin-1-yl)methyl]-2-(trifluoromethyl)benzamide] had an IC50 of 94.1 nM.

`CN(Cc1ccc(C#N)cc1)C(=O)c1cccc(CN2C(=N)NC(c3ccc(F)cc3)(c3ccc(F)cc3)C2=O)c1` [Example 13, 3-{[4,4-bis(4-fluorophenyl)-2-imino-5-oxoimidazolidin-1-yl]methyl}-N-(4-cyanobenzyl)-N-methylbenzamide]: the midpoint of inhibition, the IC50, lay at 6.69 nM.

With `CC(C)CCC1(c2ccccc2)NC(=N)N(Cc2cccc(C(=O)N(C)Cc3ccc(C#N)cc3)c2)C1=O` (stereo not drawn) [Example 14, N-(4-cyanobenzyl)-3-{[2-imino-4-(3-methylbutyl)-5-oxo-4-phenylimidazolidin-1-yl]methyl}-N-methylbenzamide], it took 7.35 nM to reach half-maximal inhibition (IC50).

In the case of `CC(C)CC[C@]1(c2ccccc2)NC(=N)N([C@H](C)c2cccc(C(=O)N(C)Cc3ccc(F)cc3)c2)C1=O` [Example 15, N-(4-fluorobenzyl)-3-{(1R)-1-[2-imino-4-(3-methylbutyl)-5-oxo-4-phenylimidazolidin-1-yl]ethyl}-N-methylbenzamide], half-maximal inhibition (IC50) required 9.11 nM.

For the compound `CC(C)CC1(c2ccc(F)cc2)NC(=N)N(Cc2cccc(C(=O)N(C)Cc3ccc(Cl)cc3)c2)C1=O` (stereo not drawn) [Example 16, N-(4-chlorobenzyl)-3-{[4-(4-fluorophenyl)-2-imino-4-(2-methylpropyl)-5-oxoimidazolidin-1-yl]methyl}-N-methylbenzamide], the IC50 was 9.12 nM.

In turn, `CC(C)CCC1(c2ccccc2)NC(=N)N(Cc2cccc(C(=O)N(C)Cc3ccc(F)cc3)c2)C1=O` (stereo not drawn) [Example 17, N-(4-fluorobenzyl)-3-{[2-imino-4-(3-methylbutyl)-5-oxo-4-phenylimidazolidin-1-yl]methyl}-N-methylbenzamide] came in with an IC50 of 10.3 nM.

As for `CN(Cc1ccc(Cl)nc1)C(=O)c1cccc(CN2C(=N)NC(c3ccc(F)cc3)(c3ccc(F)cc3)C2=O)c1` [Example 18, 3-{[4,4-bis(4-fluorophenyl)-2-imino-5-oxoimidazolidin-1-yl]methyl}-N-[(6-chloropyridin-3-yl)methyl]-N-methylbenzamide], the midpoint of inhibition, the IC50, lay at 10.3 nM.

Take `CN(Cc1ccc(Cl)cc1)C(=O)c1cccc(CN2C(=N)NC(c3ccc(F)cc3)(c3cccc(C(N)=O)c3)C2=O)c1` (stereo not drawn) [Example 19, 3-{[4-(3-carbamoylphenyl)-4-(4-fluorophenyl)-2-imino-5-oxoimidazolidin-1-yl]methyl}-N-(4-chlorobenzyl)-N-methylbenzamide]: the IC50 was determined as 11.6 nM.

In turn, `C[C@H](c1ccc(F)cc1)N(C)C(=O)c1cccc(CN2C(=N)NC(c3ccccc3)(c3ccccc3)C2=O)c1` [Example 20, N-[(1R)-1-(4-fluorophenyl)ethyl]-3-[(2-imino-5-oxo-4,4-diphenylimidazolidin-1-yl)methyl]-N-methylbenzamide] gave an IC50 of 11.7 nM.

`CN(Cc1ccc(Cl)cn1)C(=O)c1cccc(CN2C(=N)NC(c3ccc(F)cc3)(c3ccc(F)cc3)C2=O)c1` [Example 21, 3-{[4,4-bis(4-fluorophenyl)-2-imino-5-oxoimidazolidin-1-yl]methyl}-N-[(5-chloropyridin-2-yl)methyl]-N-methylbenzamide] registered an IC50 of 12.7 nM.

As for `CC(C)CCC1(c2ccc(F)cc2)NC(=N)N(Cc2cccc(C(=O)N(C)Cc3ccc(Cl)cc3)c2)C1=O` (stereo not drawn) [Example 22, N-(4-chlorobenzyl)-3-{[4-(4-fluorophenyl)-2-imino-4-(3-methylbutyl)-5-oxoimidazolidin-1-yl]methyl}-N-methylbenzamide], 12.9 nM corresponded to half-maximal inhibition (IC50). This IC50 and that of the compound before are within 1.5-fold of each other.

On to `CN(Cc1ccccc1S(C)(=O)=O)C(=O)c1cccc(CN2C(=N)NC(c3ccccc3)(c3ccccc3)C2=O)c1` [Example 23, 3-[(2-imino-5-oxo-4,4-diphenylimidazolidin-1-yl)methyl]-N-methyl-N-[2-(methylsulfonyl)-benzyl]benzamide], for which the IC50 came out at 12.9 nM.

`CC(C)CCC1(c2ccccc2)NC(=N)N(Cc2cccc(C(=O)N(C)[C@H](C)c3ccc(F)cc3)c2)C1=O` (stereo partly drawn) [Example 24, N-[(1R)-1-(4-fluorophenyl)ethyl]-3-{[2-imino-4-(3-methylbutyl)-5-oxo-4-phenylimidazolidin-1-yl]methyl}-N-methylbenzamide] came in with an IC50 of 13.2 nM.

`CC(C)CC1(c2ccccc2)NC(=N)N(Cc2cccc(C(=O)N(C)Cc3ccc(Cl)cc3)c2)C1=O` (stereo not drawn) [Example 25, N-(4-chlorobenzyl)-3-{[2-imino-4-(2-methylpropyl)-5-oxo-4-phenylimidazolidin-1-yl]methyl}-N-methylbenzamide] returned an IC50 of 13.8 nM.

Turning to `CC(C)CCC1(c2ccccc2)NC(=N)N(Cc2cccc(C(=O)N(C)Cc3ccc(Cl)cc3)c2)C1=O` (stereo not drawn) [Example 26, N-(4-chlorobenzyl)-3-{[2-imino-4-(3-methylbutyl)-5-oxo-4-phenylimidazolidin-1-yl]methyl}-N-methylbenzamide], the IC50 stood at 13.9 nM.

Compound `CCCC1(c2ccccc2)NC(=N)N(Cc2cccc(C(=O)N(C)Cc3ccc(Cl)cc3)c2)C1=O` (stereo not drawn) [Example 27, N-(4-chlorobenzyl)-3-[(2-imino-5-oxo-4-phenyl-4-propylimidazolidin-1-yl)methyl]-N-methylbenzamide] had an IC50 of 16.9 nM. The IC50 values of the last two compounds are within 1.5-fold of each other.

On to `CN(Cc1ccc(F)cc1)C(=O)c1cccc(CN2C(=N)NC(c3ccc(F)cc3)(c3ccc(F)cc3)C2=O)c1` [Example 28, 3-{[4,4-bis(4-fluorophenyl)-2-imino-5-oxoimidazolidin-1-yl]methyl}-N-(4-fluorobenzyl)-N-methylbenzamide], for which the IC50 came to 17.4 nM. This IC50 and that of the compound before are within 1.5-fold of each other.

As to `CC(C)CCC1(c2ccccc2)NC(=N)N(Cc2cccc(C(=O)N(C)Cc3ccccc3S(C)(=O)=O)c2)C1=O` (stereo not drawn) [Example 29, 3-{[2-imino-4-(3-methylbutyl)-5-oxo-4-phenylimidazolidin-1-yl]methyl}-N-methyl-N-[2-(methylsulfonyl)-benzyl]benzamide], the IC50 amounted to 17.8 nM.

As to `CN(Cc1ccc(Cl)cc1)C(=O)c1cccc(CN2C(=N)NC(c3ccc(F)cc3)(c3ccc(F)cc3)C2=O)c1` [Example 30, 3-{[4,4-bis(4-fluorophenyl)-2-imino-5-oxoimidazolidin-1-yl]methyl}-N-(4-chlorobenzyl)-N-methylbenzamide], 17.9 nM corresponded to half-maximal inhibition (IC50).

`CC(C)CCC1(c2cccc(-c3cccnc3)c2)NC(=N)N(Cc2cccc(C(=O)N(C)Cc3ccc(C#N)cc3)c2)C1=O` (stereo not drawn) [Example 31, N-(4-cyanobenzyl)-3-{[2-imino-4-(3-methylbutyl)-5-oxo-4-(3-pyridin-3-ylphenyl)imidazolidin-1-yl]methyl}-N-methylbenzamide] yielded an IC50 of 19 nM. This IC50 and that of the compound before are within 1.5-fold of each other.

On to `CN(Cc1ccc(F)cc1)C(=O)c1cccc(CN2C(=N)NC(c3ccccc3)(c3ccccc3)C2=O)c1` [Example 32, N-(4-fluorobenzyl)-3-[(2-imino-5-oxo-4,4-diphenylimidazolidin-1-yl)methyl]-N-methylbenzamide], for which the IC50 was 19.3 nM.

The compound `CC(C)C[C@]1(c2ccccc2)NC(=N)N([C@H](C)c2cccc(C(=O)N(C)Cc3ccc(F)cc3)c2)C1=O` [Example 33, N-(4-fluorobenzyl)-3-((R)-1-((R)-2-imino-4-isobutyl-5-oxo-4-phenylimidazolidin-1-yl)ethyl)-N-methylbenzamide] yielded an IC50 of 19.8 nM.

Compound `CN(C)C(=O)c1cccc(C2(c3ccc(F)cc3)NC(=N)N(Cc3cccc(C(=O)N(C)Cc4ccc(Cl)cc4)c3)C2=O)c1` (stereo not drawn) [Example 34, 3-[1-{3-[(4-chlorobenzyl)(methyl)-carbamoyl]benzyl}-4-(4-fluorophenyl)-2-imino-5-oxoimidazolidin-4-yl]-N,N-dimethylbenzamide] returned a half-inhibitory concentration (IC50) of 19.9 nM.

Compound `CC(C)CCC1(c2ccc(F)cc2)NC(=N)N(Cc2cccc(C(=O)N(C)Cc3ccc(C#N)cc3)c2)C1=O` (stereo not drawn) [Example 35, N-(4-cyanobenzyl)-3-{[4-(4-fluorophenyl)-2-imino-4-(3-methylbutyl)-5-oxoimidazolidin-1-yl]methyl}-N-methylbenzamide] returned an IC50 of 20.5 nM.

`CN(Cc1ccc(Cl)cc1)C(=O)c1cccc(CN2C(=N)NC(c3ccccc3)(c3ccccc3)C2=O)c1` [Example 36, N-(4-chlorobenzyl)-3-[(2-imino-5-oxo-4,4-diphenylimidazolidin-1-yl)methyl]-N-methylbenzamide]: the IC50 was 21.7 nM.

Compound `CN(Cc1ccc(Cl)cc1)C(=O)c1cccc(CN2C(=N)NC(c3ccc(F)cc3)(c3cccc(C#N)c3)C2=O)c1` (stereo not drawn) [Example 37, N-(4-chlorobenzyl)-3-{[4-(3-cyanophenyl)-4-(4-fluorophenyl)-2-imino-5-oxoimidazolidin-1-yl]methyl}-N-methylbenzamide] had an IC50 of 23.5 nM.

In the case of `CN(Cc1ccnc(Cl)c1)C(=O)c1cccc(CN2C(=N)NC(c3ccc(F)cc3)(c3ccc(F)cc3)C2=O)c1` [Example 38, 3-{[4,4-bis(4-fluorophenyl)-2-imino-5-oxoimidazolidin-1-yl]methyl}-N-[(2-chloropyridin-4-yl)methyl]-N-methylbenzamide], inhibition was half-maximal at 23.8 nM (IC50).
